Assay results: patent US20210268030A1, “FIBROADIPOGENIC PROGENITOR-DERIVED EXOSOMES FOR REGENERATION OF DYSTROPHIC MUSCLES” (EXOFIX S.R.L., priority 2018, published 2021)

Columns and labels:
mdx muscles = test: Regeneration, fibrosis and inflammation in mdx tibialis anterior after exosome injection or systemic TSA; type: in vivo, mdx mice; conditions: 21 days; exosomes intramuscular every 7 days or TSA daily intra-peritoneal
Procedure: (§1) Animals were used at the specified age and treated for the indicated periods with daily intra peritoneal injections of Trichostatin A, TSA (0.6 mg/kg/day; #T8552, Sigma), dissolved in phospate-saline solution or in phospate-saline alone as vehicle control (CTR). Muscle injury was performed by intramuscular injection in Tibliais Anterior (TA) of Cardiotoxin—CTX− (10 μM, 10 mg/mL) (#L8102, Lotaxan Valence, France, http://www.latoxan.com), 3 days before mice sacrifice.
FAPs-derived exosomes at a final concentration of 10 μg in 20 μL of PBS1x (0.5 ug/μl) (#14190-1444, Gibco by life technologies) and its vehicle of control (20 μl PBS1x) were injected 3 times in left TA of young C57BL6/mdx mice: every 7 days for 21 days.
For Masson Trichrome staining to analyze fibrotic tissue, muscle cryo-sections were fixed for 20′ at 56° C. in Bouin's Solution (#HT10132, L Sigma) and then stained in Working Weigert's Iron Hematoxilin solution for 5 min (#HT1079, Sigma), washed in running tap water for 5 min and stained in Biebrich Scarlet-Acid Fucsin for 5 min (#HT151, Sigma). Sections were rinsed in de-ionized water and re-fixed in freshly made Phosphomolybdic/Phosphotungstic/dH2O (1:1:2) acid solution for 8 min (#HT153, #HT152, Sigma), and then they are stained in Aniline Blue solution for 5 min (#HT154, Sigma) and in acid acetic 1% for 2 min (#27221, Sigma). The slides were dehydratated in ethanol (#02860, Sigma) and xilene (#X1040, Sigma) and mounted with EUKITT (#03989, Sigma), then visualized using a Nikon Eclipse 90i: collagen fibers are stained in blue, the nuclei stained in black and the muscle tissue is stained in red. miRNA in situ hybridization was performed as described by Pena (2009) in formaldehyde and carbodiimide (EDC)-fixed TA cryo-sections (0.16M 90 min at RT,_#25952-53-8, Merck KGaA). After washes with 0.2% glycine (#G8898, Sigma) and TBS, cryo-sections were acetylated using 0.1 M triethanolamine and 0.25% acetic anhydride for 25 min at RT (respectively #90275, #A6404, Sigma). This steps are followed by a pre-hybridization using 2× of SSC, 25% formamide (#F9037, Sigma); 0.2% Triton (#X100, Sigma) 30 min at RT and by the over night hybridization at 4° C. with the has-miR206 probe (10 pmol, #18100-01, exiqon) dissolved in a solution of 50% formamide, 250 μg/ml tRNA (#R1753, Sigma), 200 μg/ml SSDNA (#D7656, Sigma), 10% dextran sulphate (#D8906, Sigma) and 2× SSC. The hybridization was followed by specific washes with SSC to eliminate non specific binding of probe (5× SSC 5 min at RT, 1× SSC 15 min at 45° C., 2% BSA in 0.2× SSC 15 min at 4° C., 2× SSC 5 min at RT, TNbuffer 10 min at RT and TNT buffer 15′ at RT) and by the incubation of cryo-section using anti-digoxigenin-ap fab fragments ( 1/100, #11093274910, Roche) dissolved in TNbuffer for 2 hours at RT. To reveal the miRNA probe specific binding cryo-sections, covered from light, were incubating over night at 4° C. with 0.375 mg/ml of NBT and 0.188 mg/ml BCIP dissolved in a solution of TMNbuffer (respectively #11383213001 and #11383221001, Roche).
For immunofluorescence analysis, cryo-sections and cells were fixed in 4% PFA for 10 min and permeabilized with 100% cold acetone (#32201, Sigma) for 6 min at −20° C. or 100% cold Methanol (#32213, Sigma) for 6 min at −20° or with 0.25% Triton for 15 min at RT. Muscle sections were blocked for 1 h with a solution containing 4% BSA (#A7030, Sigma) in PBS. […]

Notch1 = Notch1 transcripts in MuSCs isolated from treated mdx mice; type: in vivo; conditions: MuSCs isolated from mdx mice treated with TSA
Procedure: as §1
For RNA-sequencing sample preparation, MuSCs and FAPs were freshly isolated by FACS from 6 C57BI6 mdx male mice 8-weeks old treated or not with TSA for 15 days. RNA was collected using Trizol) reagent (#T9424, Sigma). About 100 ng/μL of total RNA was sent in duplicate to IGA (Istituto di Genomica Applicata, Udine) for RNA sequencing using Illumina TruSeq Stranded Total RNA kit Ribo-Zero GOLD on Illumina Hiseq2500 platform.
To investigate this hypothesis, we evaluated the effect of FAP-derived exosomes from HDACi-treated or control-treated mdx mice on MuSCs within single fibres isolated from WT mice. Freshly isolated single muscle fibres from tibialis anterior, extensor digitorum longus, gastrocnemius and soleus of C57BL6J mice were incubated with FAP-derived exosomes or whole conditioned media, and their effect on MuSCs was evaluated by monitoring the expression of Pax7, MyoD and DNA synthesis (EdU incorporation). […]

miR-206 = miR-206 in situ hybridization of tibialis anterior sections; type: in vivo; conditions: young mdx mice (1.5 months of age)
Procedure: Animals were used at the specified age and treated for the indicated periods with daily intra peritoneal injections of Trichostatin A, TSA (0.6 mg/kg/day; #T8552, Sigma), dissolved in phospate-saline solution or in phospate-saline alone as vehicle control (CTR). Muscle injury was performed by intramuscular injection in Tibliais Anterior (TA) of Cardiotoxin—CTX− (10 μM, 10 mg/mL) (#L8102, Lotaxan Valence, France, http://www.latoxan.com), 3 days before mice sacrifice. […]
Of note, transgenic miR-206 upregulation has been exploited as tool for the treatment of DMD and other muscular disorders (Liu et al., 2012; Williams et al., 2009; Fry et al., 2017). […] The same pattern could be observed in mdx mice, in which an abundant miR-206 signal was detected in the interstitium of tibialis anterior muscles, overlapping with the immunofluorescence staining of the FAP's marker Sca-1 (FIG. 3H). […] We performed a quantitative assessment of exosomal miR-206, by isolating whole tibialis anterior (TA) muscles from TSA-treated mdx muscle or untreated control mdx mice, followed by gentle dissociation and exosome isolation.

CC(/C=C/C(=O)NO)=C\[C@@H](C)C(=O)c1ccc(N(C)C)cc1 [TSA, Trichostatin A]
embryonic-MyHC-positive myofibers (eMyHC) (mdx muscles): increase | fibers calibre, cross sectional area (CSA) (mdx muscles): increase | fibrosis (mdx muscles): reduce | inflammation (MPO) (mdx muscles): significant reduction | muscle fiber area fraction (MFAF) (mdx muscles): increase | Notch1 transcripts (Notch1): reduced | amount of interstitial miR-206 signal associated with Sca-1 staining (miR-206): increased
